By melting point is commonly meant the temperature, or range, at which the solid turns liquid. In turn, `COc1ccc(CCNCC(O)c2ccc(C)cc2)cc1OC` (stereo not drawn) returned a melting point of 99 to 100 °C.
The molecule `CC(C)N(CCOc1ccccc1NC(=O)c1cccc2[nH]ccc12)C(C)C` yielded a melting point of 145 °C.
Consider `CNC1CN(CCO)CCN1c1ncc(SC)c(Cl)n1` (stereo not drawn), for which the melting point is 120 to 122 °C.
`Nc1c(Cl)cc(CC(=O)c2ccccc2)c2c1OCCO2` had a melting point of 133 to 135 °C.
The molecule `O[C@H](CCc1cccnc1)COc1ccc(C#Cc2ccccc2)cc1` gave a melting point of 67 to 68 °C.
In the case of `CNS(=O)(=O)c1ccccc1Nc1nc(Nc2ccc3c(c2)CCCC(=O)N3CC(=O)OC)ncc1Cl`, the melting point fell in the range of 237 to 239 °C.
`CCCSc1ncc(CC(NC(=O)c2ccccc2)C(=O)O)n1Cc1ccccc1Cl` (stereo not drawn) had a melting point of 210 to 212 °C.
The result for `COc1ccc2[nH]c3cnc4c(c3c2c1)C(=O)CC(C)(C)C4` reads 230 to 231 °C.
For the molecule `CSCc1cn(C)c2c(F)cccc2c1=O`, the melting point fell in the range of 165 to 167 °C.
The result for `COc1cc(/C=C/C(=O)/C=C/c2cc(OC)c(OCCN=[N+]=[N-])c(OC)c2)cc(OC)c1OCCN=[N+]=[N-]` reads 107 to 109 °C; that for `CCCCCNc1nc(SC)[nH]c2nccc1-2`, 134 to 137 °C.
Consider `COc1ccc(-c2coc(C(N)=O)cc2=O)cc1`, for which the melting point was in the range of 262 to 263 °C.
For `CN(CCc1ccccc1)C(=O)Cn1cc(C=CC=CC(=O)O)c2cc(OCc3ccccc3)ccc21`, the melting point was in the range of 189 to 190 °C.
The figure for `COc1cccc(CC(=O)O)c1OCCCCc1cn(-c2ccc(C(F)(F)F)cn2)nc1C(C)C` is 144 to 145 °C; for `CCN(CC)CCOc1ccc(C#CC(C)(C)O)cc1` it is 64 °C; for `CCOc1cc2c(cc1OC)C(c1ccc(C(=O)N(C(C)C)C(C)C)cc1)=NC1CC[N+](C)([O-])CC21` (stereo not drawn) it is 195 to 198 °C.
In turn, `c1cc(CCC(Cn2ccnc2)Sc2ccc(N3CCCC3)cc2)ccn1` (stereo not drawn) registered a melting point of 148 to 149 °C.
The figure for `NC(=NCC(F)(F)F)Nc1ccnc(OCCCO)n1` is 118 to 120 °C; for `O=C(O)C(O)c1ccc(Cc2ccccc2)s1` (stereo not drawn) it is 81 to 82 °C; for `CC(C)Oc1c(C(=O)O)sc2c1CSCC2` it is 148 to 149 °C.
The figure for `Nc1ncnc2c1c(-c1cccc(Cl)c1)cn2-c1ccccc1` is 173 to 175 °C; for `COc1cccc2c1OC(CN1CC=C(c3c[nH]c4ncccc34)CC1)CO2` (stereo not drawn) it is 207 to 210 °C; for `CCOC(=O)Cc1nc2ccccc2n1-c1ccccc1` it is 87 to 89 °C.
For `Cc1ccc(NC(=O)CN2CCNCC2)cc1Nc1ncc(-c2cccnc2)o1`, the melting point lay within 176 to 178 °C.
Take `CCC(CC)C(NS(=O)(=O)c1ccc(Br)s1)c1ccnn1-c1ccccc1` (stereo not drawn): the melting point was 120 to 121 °C.
In turn, `CCCc1nc2c(C)cc(C)nc2n1C1CCc2cc(-c3ccccc3-c3nnn[nH]3)ccc21` (stereo not drawn) returned a melting point of 173 °C.
Molecule `CCCCc1nc2cccc(C(=O)OCCO)c2n1Cc1ccc(-c2ccccc2-c2nnn[nH]2)cc1` yielded a melting point of 145 to 147 °C.
Turning to `O=C1N(Cc2nc3cc(F)ccc3[nH]2)c2ccccc2C12COc1cc3c(cc12)OCO3` (stereo not drawn), the melting point is 138 to 142 °C.
The figure for `COc1c(I)c(OC)c2ccccc2c1C(=O)OCc1ccccc1` is 80 to 83 °C; for `Cc1c(-c2ccccc2)nn(N)c1OCCN1CCCC1` it is 109 °C.
The result for `COc1cc2c(c3c1OC(C)(C)C3)C(c1cccc(NC(=O)Nc3ccccn3)c1)=NC(C)(C)C2` reads 189 to 191 °C; that for `CC(C)(CO)c1cc(Cl)nnc1Cl`, 133 to 136 °C; that for `COC(=O)c1ccc2c(c1)C(=O)C(Cc1cccc(C(=O)O)c1)O2` (stereo not drawn), 140 to 143 °C.
In turn, `CCOc1ccc(OCCCCCN2CCN(c3nccs3)CC2)cc1` displayed a melting point of 79 to 81 °C.
The molecule `CC(C)(C)c1ccc(C(=O)CCCCCC2CCCCC2)cc1NC(=O)CC1c2ccccc2Oc2ccccc21` gave a melting point of 134 °C.
`CCOC(=O)C1=C(N)NC(c2ccccc2)=CC1c1ccccc1` (stereo not drawn) registered a melting point of 159 °C.
Molecule `O=C([C@H](O)CS(=O)(=O)c1ccc2cc(Cl)ccc2c1)N1CCN(N2CCCCC2=O)CC1` showed a melting point of 198 °C.
Molecule `COc1ccc(S(=O)(=O)N2c3cc(F)ccc3-c3ccc(F)cc3C2C)cc1` (stereo not drawn) yielded a melting point of 141 to 143 °C.
In the case of `CC(C)Oc1ccc(F)c(-c2nn(C(C)c3oc4ccccc4c(=O)c3-c3cccc(F)c3)c3ncnc(N)c23)c1` (stereo not drawn), the melting point was in the range of 198 to 201 °C.
Molecule `CCCCc1cccc2[nH]c(C(=O)O)cc(=O)c12` showed a melting point of 269 to 270 °C.
`O=C(Nc1ccc(Cl)cc1)OCCOc1ccc(Oc2ccccc2)cc1Cl` gave a melting point of 155 to 156 °C.
`CN(C)CCc1c(CC(N)=O)c2ccccc2n1C` displayed a melting point of 131 to 134 °C.
For the molecule `O=C(O)c1ccc2c(=O)n3c(nc2c1)C(=Cc1ccccc1)CC3`, the melting point is 382 to 384 °C.
Consider `CC(C)(C)C(NC(=O)c1ccc(Cl)cc1)NC(=NC#N)NCc1ccccn1` (stereo not drawn), for which the melting point fell in the range of 184 to 185 °C.
The result for `COc1ccccc1-n1c(=O)[nH]c2c(C(N)=O)nc(-c3ccc4nc[nH]c4c3)nc21` reads 306 °C.
`Nc1nc(N)c2c(n1)NCC(CCc1ccc(C(=O)N[C@@H](CCC(=O)O)C(=O)O)cc1)C2` (stereo partly drawn): the melting point was greater than 250 °C.
The molecule `Oc1ccnc2ncnn12` registered a melting point of 290 °C.
The result for `O=C(c1ccccc1)c1cc([N+](=O)[O-])ccc1NC1CCCC1` reads 95 °C.
In the case of `CN(Cc1ccc(CCC(=O)Nc2ccc(-c3ccc(Cl)cc3)cc2)cc1)C1CCOCC1`, the melting point fell in the range of 167 to 173 °C.
With `Cn1cc(-c2cc3cccnc3[nH]2)c2cc(OCC(O)CO)ccc21` (stereo not drawn), the melting point was 182 to 185 °C.
The figure for `CCCn1nc(C(C)C)c(C(=O)O)c1Cc1ccc(-c2ccccc2C(=O)O)cc1` is 226 to 230 °C; for `CN(CCO)c1cc2c(=O)n(NS(C)(=O)=O)c(=O)[nH]c2cc1C(F)(F)F` it is 220 to 224 °C.
`Cn1ccc(=O)c(O)c1C(O)c1ccccc1` (stereo not drawn) had a melting point of 210 to 213 °C.
As for `CC(C)(C)n1[nH]c(Cc2ccncc2)c2c(=O)nc(-c3ccncc3)nc1-2`, the melting point was in the range of 233 to 235 °C.
Turning to `COC[C@H](Cc1ccccc1)Nc1nc(C)nc2c1nnn2-c1ccc(C(C)C)cc1Br`, the melting point fell in the range of 67 to 69 °C.
Turning to `O=C1OC[C@H](c2ccccc2)N1C(=O)C1C=C1`, the melting point lay within 118 to 119 °C.
In turn, `CC(C)C[C@@H](C(=O)N1CCN(C(c2ccc(F)cc2)c2ccc(F)cc2)CC1)N(Cc1ccc(C(C)(C)C)cc1)Cc1ccc(C(C)(C)C)cc1` registered a melting point of 78 to 86 °C.
Molecule `CCc1cc(O)c(C(C)=O)c(O)c1` showed a melting point of 121 to 123 °C.
On to `CC(C)(C)OC(=O)N1CC[C@H](c2ccc(OCC3OCCO3)cc2)[C@@H](O)C1` (racemic), for which the melting point fell in the range of 136 to 137 °C.
`COC(=O)Cc1ccc(CNC(=O)C2Cc3ccccc3N2S(=O)(=O)c2ccc(-c3cccc(C(F)(F)F)c3)cc2)cc1C` (stereo not drawn): the melting point is 60 to 67 °C.
In the case of `CC(C)(C)c1cc(-c2nc3n(c2CN2CCOCC2)CCS3)cc(C(C)(C)C)c1O`, the melting point lay within 231 to 233 °C.
In turn, `COc1ccccc1N1CCN(c2nc3cccc4c3n2CCC4)CC1` displayed a melting point of 199 to 201 °C.
As to `O=C(NO)c1ccccc1Nc1c(Cl)cccc1Cl`, the melting point was 171 to 173 °C.
The figure for `O=C(Nc1nc2ccc(Cl)cc2s1)c1ccc2cccnc2c1O` is greater than 320 °C.
Turning to `COc1cc(OCc2ccccn2)ccc1/C=C/c1cc(/C=C/c2ccc3ccn(C)c3c2)[nH]n1`, the melting point lay in the range of 172 to 174 °C.
The figure for `CSC(=O)C(=O)c1ccc2oc(-c3ccccc3)cc2c1` is 124 to 126 °C; for `COC(=O)Cc1cc2cc(O)ccc2s1` it is 136 to 137 °C.
In turn, `Cc1nn(-c2cc(Oc3ccc([N+](=O)[O-])cc3)c(Cl)cc2Cl)c(=O)n1C(F)F` showed a melting point of 99 to 101 °C.
In turn, `COP(=O)(OC)C(=O)Cc1ccccc1` had a melting point of 117 to 122 °C.
The figure for `c1ccc(-c2ccc3nc(-c4ccccc4)oc3n2)cc1` is 151 to 152 °C.
On to `Cc1c(-c2cc(C(=O)OC(C)C)c(Cl)cc2F)nn(C)c1C(F)(F)F`, for which the melting point was 72 °C.
For `Cc1nnc2n1-c1ccc(C#CCN3C(=O)C4CC=CCC4C3=O)cc1C(c1ccccc1F)=NC2` (stereo not drawn), the melting point fell in the range of 259 to 261 °C.
In turn, `COc1cc(N)c(S(C)(=O)=O)cc1C(=O)O` showed a melting point of 178 to 180 °C.
The result for `Cn1c(C(F)(F)F)cc(=O)n(-c2ccc3snc(C(=O)O)c3c2)c1=O` reads 149 to 152 °C; that for `COC(=O)C(Cl)C(C)=NNS(=O)(=O)c1ccc(C)cc1` (stereo not drawn), 97 to 101 °C; that for `CCNc1ccc(Cl)cc1[N+](=O)[O-]`, 90 to 91 °C.
In the case of `CSC(=Nc1ccccc1)Nc1ccccc1`, the melting point was 105 to 106 °C.
For the molecule `O=S(=O)(NN=C(Cl)c1ccccc1Br)c1ccccc1`, the melting point fell in the range of 120 to 122 °C.
In turn, `COCc1cc(OCc2ccccc2)c2nc(C)c(C)n2c1` had a melting point of 107 °C.
Turning to `Oc1ncnc2nc(C(F)(F)F)ccc12`, the melting point fell in the range of 268 to 269 °C.
Consider `CCOC(=O)NCC1CO1` (stereo not drawn), for which the melting point is 75 to 78 °C.
For the molecule `CC(O)CSc1sc(-c2cc[nH]n2)c2c1C(=O)CC(C)(C)C2` (stereo not drawn), the melting point was 175 to 178 °C.
With `CCOC(=O)c1c(COC(C)=O)cccc1S(=O)(=O)NC(C)(C)C`, the melting point was in the range of 81 to 82 °C.
`Cc1cccc(-c2n[nH]cc2-c2ccc(F)c(-c3ccc(S(=O)(=O)C(F)(F)F)cc3)c2)n1`: the melting point is 81 to 84 °C.
The figure for `O=[N+]([O-])c1cccc(OC2CCCCO2)c1O` (stereo not drawn) is 72 to 73 °C; for `CCCCCCc1cc2c(s1)-n1c(C)nnc1CN=C2c1ccc(C)cc1` it is 74 to 76 °C.
Molecule `CS(=O)(=O)c1ccc(-c2ccc(C(F)F)n2-c2ccc(F)cc2)cc1` showed a melting point of 111 to 112 °C.
The molecule `Nc1ccc(C2=NNC(=O)Cc3cc4c(cc32)OCO4)c(Cl)c1` showed a melting point of 238 to 240 °C.

The record behind these values is a melting point compilation (Tetko et al.; mined from patent text by program, amines drawn as free bases though some values may be those of a salt).
